Results on 15 molecules are retold here after US8349868B2, “Azaquinolones that inhibit prolyl hydroxylase” (Amgen Inc., priority 2007, dated 2013).

Format in all cases: biochemical
Test [1] addresses T1, Collagen Prolyl Hydroxylase II (CPH2) (Homo sapiens, UniProt O15460).
T1 construct: made in house; host or cells: Trichoplusia ni insect cells (baculovirus)
Description: Collagen prolyl hydroxylase II activity by radiometric HPLC measurement of 2-oxoglutarate conversion to succinic acid. The note with it: Table 5; 50 μM 2-oxoglutarate, 100 μM PPG10, 10 μM FeSO4. Here is the method:
Assay conditions were established in separate studies to define dependence on dithiothreitol (DTT), ascorbate, and catalase, and to define reaction linearity and Km values for 2-oxoglutarate (2-OG; PerkinElmer LAS, Shelton, Conn. or Moravek Biochemicals, Brea, Calif.), FeSO4, and (Pro-Pro-Gly)10 peptide (PPG10; Peptides International, Louisville, Ky.). […] Product inhibition was not evident. Compounds were dissolved and serially diluted in 100% DMSO for potency determination. Assay Buffer consisted of Tris-HCl, pH 7.5, 0.2 mM DTT, and 0.5 mg/ml catalase. PPG10 peptide was dissolved in 0.25% acetic acid and denatured by boiling for 5 minutes then placed on ice for 5 minutes. The denatured PPG10 was then pre-mixed with 1 M ascorbate, prepared in water, and the mixture diluted with Assay Buffer to yield a working solution of 5× peptide and ascorbate. FeSO4 was freshly dissolved in water and diluted to a 2.8× concentration in Assay Buffer. Enzyme stocks were diluted to a 5× concentration in Assay Buffer. Example compounds plus FeSO4 solution were mixed, followed by addition of 5× enzyme solutions. After 10 minutes gentle mixing at room temperature, the 5× peptide solution was added. After another 10 minutes gentle mixing at room temperature, a 5× stock of 2-OG was added to initiate the reaction. Final concentrations in the assay were: 50 mM Tris-HCl, pH 7.5, 0.2 mM DTT, 0.5 mg/mL catalase, 10 μM FeSO4, 100 μM PPG10, 50 μM 5-[^14C]-2-oxoglutarate ([…]), 1 mM ascorbate, and 4% DMSO. Reactions were gently mixed at room temperature for 1 hour and terminated by addition of an equal volume of 0.02 NH2SO4. Unless otherwise indicated, all reagents were obtained from Sigma and were the highest grade available.
A portion of each terminated reaction was auto-injected into a Polypore H column (PerkinElmer, Waltham, Mass.) at a rate of 0.3 mL/min with 0.01 N H2SO4 as the mobile phase. The HPLC method employed exploits the difference in pKa of the 2-OG and SA carboxylates to chromatographically separate substrate from product at low pH on ion-exchange resin, as described by Cunliffe, et al (Biochem J., 240, 617-619 (1986)) and Kaule and Gunzler (Anal. Biochem., 184, 291-297 (1990)). An Agilent 1100 HPLC System with dual quaternary pumps, column switching valve, and dual columns was used to resolve product from substrate. The Agilent 1100 Multiple Wavelength Detector indicated UV absorption of the substrate and product peaks at 210 nm and a Beta-RAM Model 2 radiation detector with In-Flow 2:1 scintillation cocktail (IN/US Systems Inc.) enabled quantitation of the 2 radioactive peaks. Laura Lite software (IN/US, Tampa, Fla.) was used to collect and analyze radiometric data. AUC measurements were converted to percent turnover of 2-OG. To standardize across studies, 2-OG conversion was normalized to percent of control (POC) values using reactions that lacked enzyme or inhibitor as low and high controls, respectively. POC data was fitted to the 4-parameter logistic model (A+((B−A)/(1+((x/C)^D)))) using ActivityBase (IDBS, Alameda Calif.) where A is the minimum POC value, B is the maximum POC value, D is the slope factor, and C is compound concentration at the inflection point (IC50, micromolar).
The Baculovirus Expression Vector System (BEVS) from Invitrogen was used to express collagen prolyl 4-hydroxylase (CPH) in Trichoplusia ni insect cells. Active collagen prolyl 4-hydroxylase is an oligomeric protein that exists as an α2β2 tetramer. The alpha subunits incorporated into the tetramer can be either collagen prolyl 4-hydroxylase α1 (GenBank reference sequence NM_000917) or collagen prolyl 4-hydroxylase α2 (GenBank reference sequence NM_004199). The beta subunit, collagen prolyl 4-hydroxylase β (GenBank reference sequence NM_000918), is common to both forms of the tetramer. […]

The target in test [2] is T2, Collagen Prolyl Hydroxylase I (CPH1) (Homo sapiens, UniProt P13674).
T2 construct: made in house; host or cells: Trichoplusia ni insect cells (baculovirus)
Put plainly: Collagen prolyl hydroxylase I activity by radiometric HPLC measurement of 2-oxoglutarate conversion to succinic acid. The note with it: Table 5; 50 μM 2-oxoglutarate, 100 μM PPG10, 10 μM FeSO4.
Description: Product inhibition was not evident. Compounds were dissolved and serially diluted in 100% DMSO for potency determination. Assay Buffer consisted of Tris-HCl, pH 7.5, 0.2 mM DTT, and 0.5 mg/ml catalase. PPG10 peptide was dissolved in 0.25% acetic acid and denatured by boiling for 5 minutes then placed on ice for 5 minutes. The denatured PPG10 was then pre-mixed with 1 M ascorbate, prepared in water, and the mixture diluted with Assay Buffer to yield a working solution of 5× peptide and ascorbate. FeSO4 was freshly dissolved in water and diluted to a 2.8× concentration in Assay Buffer. Enzyme stocks were diluted to a 5× concentration in Assay Buffer. Example compounds plus FeSO4 solution were mixed, followed by addition of 5× enzyme solutions. After 10 minutes gentle mixing at room temperature, the 5× peptide solution was added. After another 10 minutes gentle mixing at room temperature, a 5× stock of 2-OG was added to initiate the reaction. Final concentrations in the assay were: 50 mM Tris-HCl, pH 7.5, 0.2 mM DTT, 0.5 mg/mL catalase, 10 μM FeSO4, 100 μM PPG10, 50 μM 5-[^14C]-2-oxoglutarate (23-37 cpm/μmol), 1 mM ascorbate, and 4% DMSO. Reactions were gently mixed at room temperature for 1 hour and terminated by addition of an equal volume of 0.02 NH2SO4.
A portion of each terminated reaction was auto-injected into a Polypore H column (PerkinElmer, Waltham, Mass.) at a rate of 0.3 mL/min with 0.01 N H2SO4 as the mobile phase. […] An Agilent 1100 HPLC System with dual quaternary pumps, column switching valve, and dual columns was used to resolve product from substrate. The Agilent 1100 Multiple Wavelength Detector indicated UV absorption of the substrate and product peaks at 210 nm and a Beta-RAM Model 2 radiation detector with In-Flow 2:1 scintillation cocktail (IN/US Systems Inc.) enabled quantitation of the 2 radioactive peaks. Laura Lite software (IN/US, Tampa, Fla.) was used to collect and analyze radiometric data. AUC measurements were converted to percent turnover of 2-OG. To standardize across studies, 2-OG conversion was normalized to percent of control (POC) values using reactions that lacked enzyme or inhibitor as low and high controls, respectively. POC data was fitted to the 4-parameter logistic model (A+((B−A)/(1+((x/C)^D)))) using ActivityBase (IDBS, Alameda Calif.) where A is the minimum POC value, B is the maximum POC value, D is the slope factor, and C is compound concentration at the inflection point (IC50, micromolar).

The target in the next test is HIF PHD2 (Homo sapiens, UniProt Q9GZT9). Put plainly: PHD2 inhibition assay, TR-FRET detection with VCB-Eu. Here is the method:
Inhibition of HIF PHD2 activity was quantified utilizing the TR-FRET technology. HIF PHD2 catalyzes a hydroxyl modification on the proline residue of the P564-HIF1α peptide substrate (Biotin-[…] (SEQ ID NO: 7)) resulting in recognition and binding of the europylated Von Hippel-Lindau protein (pVHL), elongin B and elongin C heterotrimeric (VCB-Eu) complex.
The PHD2 inhibition assay was executed by addition of freshly dissolved FeCl2 to 178.57 μM (100 μM final concentration) in PHD2 Reaction Buffer containing 30 mM MES, pH 6, 10 mM NaCl, 0.25% Brij-35, 0.01% BSA, and 1% DMSO. 28 μL of the iron solution and 2 μL of inhibitor compounds serially diluted in 100% DMSO (5% DMSO final) were added to black polypropylene 96-well microtiter plates. To that, 10 μL of 10 nM PHD2 (2 nM final) was added to all wells of the plate except for the 8 wells of column 12 (LO control), and allowed to incubate at room temperature on the shaker for one hour. Column 6 was the HI control containing PHD2 enzyme and 5% DMSO vehicle, but no inhibitor compound. To initiate the PHD2 enzymatic reaction, 10 μL of a solution containing 500 nM P564-HIF1α peptide (100 nM final), 10 mM ascorbic acid (2 mM final), and 1.25 μM 2-oxoglutarate (α-ketoglutarate; 0.25 μM final) in PHD2 Reaction Buffer was added to all wells of the plate and allowed to incubate on the shaker at room temperature for one hour.
The reaction was terminated by addition of 25 μL TR-FRET Buffer (50 mM TRIS-HCl, pH 9, 100 mM NaCl, 0.05% BSA, and 0.5% Tween-20) containing 150 mM succinate (product inhibitor; 50 mM final), 75 nM streptavidin-APC (25 nM final), and 7.5 nM VCB-Eu (2.5 nM final). The TR-FRET detection reagents were placed on a shaker for 1 hour to reach binding equilibrium before reading on the Discovery platform (PerkinElmer). Europium is excited at 315 nm and phosphoresces at 615 nm with a large Stoke's shift. APC, in turn, emits at 655 nm upon excitation at 615 nm. The TR-FRET signal is measured as the ratio of the APC 655 nm signal divided by the internal europium reference 615 nm emission signal.
The POC (percentage of control) was determined by comparing the signal from hydroxylated peptide substrate in the enzyme reaction containing inhibitor compound with that from PHD2 enzyme with DMSO vehicle alone (HI control), and no enzyme (LO control). POC was calculated using the formula: % control (POC)=(cpd−average LO)/(average HI−average LO)*100. Data (consisting of POC and inhibitor concentration in μM) was fitted to a 4-parameter equation (y=A+((B−A)/(1+((x/C)^[…]))), where A is the minimum y (POC) value, B is the maximum y (POC), C is the x (cpd concentration) at the point of inflection and D is the slope factor) using a Levenburg-Marquardt non-linear regression algorithm.
On the technique in general: TR-FRET usually uses a lanthanide donor and a delayed reading to cut background.

The mark [3] stands for this setting: Table 5, Example and Comparative Compounds.
[4] abbreviates: Table 4, TR-FRET, 2 nM PHD2, 100 nM P564-HIF1α peptide, 0.25 μM 2-oxoglutarate.

T2 sequence (P13674 18-534 isoform P13674-2): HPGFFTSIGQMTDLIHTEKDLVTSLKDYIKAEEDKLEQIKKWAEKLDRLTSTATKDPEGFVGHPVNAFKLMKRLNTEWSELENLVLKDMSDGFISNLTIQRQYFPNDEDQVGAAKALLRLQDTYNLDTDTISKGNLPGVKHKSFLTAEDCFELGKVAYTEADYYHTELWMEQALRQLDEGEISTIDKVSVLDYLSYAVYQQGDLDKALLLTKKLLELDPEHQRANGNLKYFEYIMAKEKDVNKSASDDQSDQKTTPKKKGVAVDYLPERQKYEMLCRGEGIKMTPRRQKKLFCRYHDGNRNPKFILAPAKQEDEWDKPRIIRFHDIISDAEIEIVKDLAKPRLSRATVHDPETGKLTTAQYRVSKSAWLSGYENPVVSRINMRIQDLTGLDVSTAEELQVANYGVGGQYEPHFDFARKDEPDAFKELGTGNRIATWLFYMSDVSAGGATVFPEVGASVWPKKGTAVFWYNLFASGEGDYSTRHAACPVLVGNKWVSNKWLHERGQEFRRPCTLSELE
T2 sequence (P07237 18-508 partner): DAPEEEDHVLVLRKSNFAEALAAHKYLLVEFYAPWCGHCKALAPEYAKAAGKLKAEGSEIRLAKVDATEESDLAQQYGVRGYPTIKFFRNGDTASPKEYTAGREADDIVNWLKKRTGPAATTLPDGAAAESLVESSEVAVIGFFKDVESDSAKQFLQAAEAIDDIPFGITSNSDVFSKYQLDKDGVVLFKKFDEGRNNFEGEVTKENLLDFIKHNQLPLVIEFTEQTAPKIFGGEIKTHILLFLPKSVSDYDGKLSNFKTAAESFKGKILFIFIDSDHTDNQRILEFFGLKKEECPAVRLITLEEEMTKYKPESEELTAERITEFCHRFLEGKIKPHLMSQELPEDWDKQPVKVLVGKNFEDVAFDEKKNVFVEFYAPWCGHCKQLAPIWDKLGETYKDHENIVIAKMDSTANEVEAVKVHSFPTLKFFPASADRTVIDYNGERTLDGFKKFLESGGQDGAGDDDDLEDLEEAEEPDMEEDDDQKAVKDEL
Chain of HIF PHD2 (Q9GZT9 whole entry): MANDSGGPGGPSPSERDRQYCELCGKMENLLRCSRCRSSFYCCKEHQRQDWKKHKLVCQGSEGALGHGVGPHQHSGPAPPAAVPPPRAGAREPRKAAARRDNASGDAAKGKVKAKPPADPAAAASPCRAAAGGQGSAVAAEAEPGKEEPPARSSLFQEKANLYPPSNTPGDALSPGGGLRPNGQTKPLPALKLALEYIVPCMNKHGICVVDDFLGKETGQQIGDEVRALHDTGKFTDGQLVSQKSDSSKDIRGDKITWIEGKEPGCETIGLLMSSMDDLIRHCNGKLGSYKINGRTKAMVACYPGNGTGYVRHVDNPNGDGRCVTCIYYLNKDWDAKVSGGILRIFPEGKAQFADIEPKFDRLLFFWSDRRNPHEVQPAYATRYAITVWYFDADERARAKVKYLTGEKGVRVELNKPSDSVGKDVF
T1 sequence (O15460 22-533 isoform O15460-2): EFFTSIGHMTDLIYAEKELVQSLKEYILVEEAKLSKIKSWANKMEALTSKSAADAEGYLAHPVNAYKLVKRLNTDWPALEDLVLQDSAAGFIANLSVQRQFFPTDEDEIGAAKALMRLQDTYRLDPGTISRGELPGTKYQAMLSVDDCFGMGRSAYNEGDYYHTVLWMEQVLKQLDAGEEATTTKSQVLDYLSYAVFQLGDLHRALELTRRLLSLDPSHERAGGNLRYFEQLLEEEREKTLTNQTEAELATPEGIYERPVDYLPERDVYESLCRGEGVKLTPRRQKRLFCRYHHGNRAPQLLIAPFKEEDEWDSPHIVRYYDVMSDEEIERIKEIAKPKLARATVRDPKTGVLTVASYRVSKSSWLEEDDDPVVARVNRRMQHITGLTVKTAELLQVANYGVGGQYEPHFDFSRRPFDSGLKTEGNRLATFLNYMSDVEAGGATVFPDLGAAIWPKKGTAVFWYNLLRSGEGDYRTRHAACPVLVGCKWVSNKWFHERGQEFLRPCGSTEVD
T1 sequence (P07237 18-508 partner): as the sequence (P07237 18-508 partner) above

As to `Cn1c(=O)c(C(=O)NCC(=O)O)c(O)c2c(Br)cccc21` [Comparative Compound 1, reference compound], the half-inhibitory concentration (IC50) (as a rule, the concentration at which inhibition is half-maximal) in test [1] was found to be 0.058 µM; in test [2], 0.341 µM; on HIF PHD2 (setting [3]), 0.188 µM.

For `Cn1c(=O)c(C(=O)NCC(=O)O)c(O)c2cc(Br)ccc21` [Comparative Compound 2, reference compound], the IC50 in test [1] amounted to 0.115 µM; in test [2], 0.404 µM; against HIF PHD2 (setting [3]), 0.351 µM.

Take `Cn1c(=O)c(C(=O)NCC(=O)O)c(O)c2ccc(Br)cc21` [Comparative Example 3, reference compound]: the IC50 in test [1] amounted to 0.111 µM; in test [2], 0.351 µM; at HIF PHD2 (setting [3]) it was 0.046 µM.

For `Cn1c(=O)c(C(=O)NCC(=O)O)c(O)c2cccc(Br)c21` [Comparative Example 4, reference compound], the IC50 in test [1] was 0.261 µM; in test [2] it was 0.503 µM; at HIF PHD2 (setting [3]) it was 0.104 µM.

On HIF PHD2 (setting [4]), `Cn1c(=O)c(C(=O)CCC(=O)O)c(O)c2cc(I)cnc21` [Example 1, 4-(4-hydroxy-6-iodo-1-methyl-2-oxo-1,2-dihydro-1,8-naphthyridin-3-yl)-4-oxobutanoic acid] displayed an IC50 of 0.208 µM.

Take `Cn1c(=O)c(C(=O)CCC(=O)O)c(O)c2cccc(Br)c21` [Example 2, 4-(8-bromo-4-hydroxy-1-methyl-2-oxo-1,2-dihydroquinolin-3-yl)-4-oxobutanoic acid]: the IC50 in test [1] stood at 1.87 µM; in test [2] it was 22.7 µM; against HIF PHD2 (setting [4]) it was 0.775 µM.

On HIF PHD2 (setting [4]), `Cn1c(=O)c(C(=O)CCC(=O)O)c(O)c2ccc(C(F)(F)F)nc21` [Example 3, 4-(4-hydroxy-1-methyl-2-oxo-7-(trifluoromethyl)-1,2-dihydro-1,8-naphthyridin-3-yl)-4-oxobutanoic acid] registered an IC50 of 0.0645 µM.

`Cn1c(=O)c(C(=O)CCC(=O)O)c(O)c2ccc(Br)cc21` [Example 4, 4-(7-bromo-4-hydroxy-1-methyl-2-oxo-1,2-dihydroquinolin-3-yl)-4-oxobutanoic acid]: the IC50 turned out to be 13.4 µM in test [1], 0.0649 µM against HIF PHD2 (setting [4]) and 0.0649 µM on HIF PHD2 (setting [3]).

Regarding `Cn1c(=O)c(C(=O)CCC(=O)O)c(O)c2ccccc21` [Example 5, 4-(4-hydroxy-1-methyl-2-oxo-1,2-dihydroquinolin-3-yl)-4-oxobutanoic acid], the IC50 against HIF PHD2 (setting [4]) came out at 0.566 µM.

On HIF PHD2 (setting [4]), `O=C(O)CCC(=O)c1c(O)c2ccc(F)c(F)c2n(Cc2ccccc2)c1=O` [Example 6, 4-(1-benzyl-7,8-difluoro-4-hydroxy-2-oxo-1,2-dihydroquinolin-3-yl)-4-oxobutanoic acid] displayed an IC50 of 0.135 µM.

Regarding `Cn1c(=O)c(C(=O)CCC(=O)O)c(O)c2cc(Br)ccc21` [Example 7, 4-(6-bromo-4-hydroxy-1-methyl-2-oxo-1,2-dihydroquinolin-3-yl)-4-oxobutanoic acid], the IC50 in test [1] came to 3.82 µM; on HIF PHD2 (setting [4]) it was 0.309 µM.

Consider `Cn1c(=O)c(C(=O)CCC(=O)O)c(O)c2c(Br)cccc21` [Example 8, 4-(5-bromo-4-hydroxy-1-methyl-2-oxo-1,2-dihydroquinolin-3-yl)-4-oxobutanoic acid], for which the IC50 in test [1] stood at 5.28 µM; against HIF PHD2 (setting [4]), 0.343 µM.

On to `Cn1c(=O)c(C(=O)CCC(=O)O)c(O)c2c(F)ccc(F)c21` [Example 9, 4-(5,8-difluoro-4-hydroxy-1-methyl-2-oxo-1,2-dihydroquinolin-3-yl)-4-oxobutanoic acid], for which half-maximal inhibition at HIF PHD2 (setting [4]) (IC50) was put at 0.779 µM.

Molecule `Cn1c(=O)c(C(=O)CCC(=O)O)c(O)c2ccc(F)c(F)c21` [Example 10, 4-(7,8-difluoro-4-hydroxy-1-methyl-2-oxo-1,2-dihydroquinolin-3-yl)-4-oxobutanoic acid] gave an IC50 at HIF PHD2 (setting [4]) of 0.285 µM.

Take `Cn1c(=O)c(C(=O)CCC(=O)O)c(O)c2ccc(-c3ccc(C(=O)O)cc3)cc21` [Example 11, 4-(3-(3-carboxypropanoyl)-4-hydroxy-1-methyl-2-oxo-1,2-dihydroquinolin-7-yl)benzoic acid]: half-maximal inhibition against HIF PHD2 (setting [4]) (IC50) required 0.0114 µM.
